Measured values published in ChEMBL document CHEMBL2086254, “Synthesis and identification of novel indolo[2,3-a]pyrimido[5,4-c]carbazoles as a new class of anti-cancer agents” (Eur J Med Chem, 2012).

Assays:
Assay type in all cases: functional
SK-MEL-2 = assay: Cytotoxicity against human SK-MEL-2 cells after 48 hrs by SRB assay; details: SK-MEL-2, 48 h
HL-60 = assay: Cytotoxicity against human HL60 cells after 48 hrs by SRB assay; details: HL-60, 48 h
KM12 = assay: Cytotoxicity against human KM12 cells after 48 hrs by SRB assay; details: KM12, 48 h
SF-539 = assay: Cytotoxicity against human SF539 cells after 48 hrs by SRB assay; details: SF-539, 48 h
OVCAR-3 = assay: Cytotoxicity against human OVCAR3 cells after 48 hrs by SRB assay; details: OVCAR-3, 48 h
T47D = assay: Cytotoxicity against human T47D cells after 48 hrs by SRB assay
CAKI-1 = assay: Cytotoxicity against human Caki1 cells after 48 hrs by SRB assay; details: CAKI-1, 48 h
HCT-15 = assay: Cytotoxicity against human HCT15 cells after 48 hrs by SRB assay; details: HCT-15, 48 h
NCI/ADR-RES = assay: Cytotoxicity against human NCI/ADR-RES cells after 48 hrs by SRB assay
A498 = assay: Cytotoxicity against human A498 cells after 48 hrs by SRB assay; details: A498, 48 h
MOLT-4 = assay: Cytotoxicity against human MOLT4 cells after 48 hrs by SRB assay; details: MOLT-4, 48 h
EKVX = assay: Cytotoxicity against human EKVX cells after 48 hrs by SRB assay
M14 = assay: Cytotoxicity against human M14 cells after 48 hrs by SRB assay; details: M14, 48 h
CCRF-CEM = assay: Cytotoxicity in human CCRF-CEM cells after 48 hrs by SRB assay
HCC 2998 = assay: Cytotoxicity against human HCC2998 cells after 48 hrs by SRB assay; details: HCC 2998, 48 h
[1] = read-out: LC50 (the source's name)

Cn1c2ccccc2c2c3nc(N)[nH]c(=O)c3c3c4ccccc4n(C)c3c21
GI50 (SK-MEL-2): 1.9 µM | TGI (SK-MEL-2): 7.59 µM | CC50 (SK-MEL-2; [1]): 76.5 µM | GI50 (HL-60): 4.19 µM | TGI (HL-60): 38 µM | CC50 (HL-60; [1]): > 100 µM | GI50 (KM12): 3.24 µM | TGI (KM12): 32.3 µM | CC50 (KM12; [1]): > 100 µM | GI50 (SF-539): 18.4 µM | TGI (SF-539): 56.6 µM | CC50 (SF-539; [1]): > 100 µM | GI50 (OVCAR-3): 9.07 µM | TGI (OVCAR-3): 25.6 µM | CC50 (OVCAR-3; [1]): 69.8 µM | GI50 (T47D): 5.1 µM | TGI (T47D): > 100 µM | CC50 (T47D; [1]): > 100 µM | GI50 (CAKI-1): 1.33 µM | TGI (CAKI-1): > 100 µM | CC50 (CAKI-1; [1]): > 100 µM | GI50 (HCT-15): 1.98 µM | TGI (HCT-15): > 100 µM | CC50 (HCT-15; [1]): > 100 µM | GI50 (NCI/ADR-RES): 3.87 µM | TGI (NCI/ADR-RES): > 100 µM | CC50 (NCI/ADR-RES; [1]): > 100 µM | GI50 (A498): 27.4 µM | TGI (A498): 97.1 µM | CC50 (A498; [1]): > 100 µM | GI50 (MOLT-4): 6.09 µM | TGI (MOLT-4): > 100 µM | CC50 (MOLT-4; [1]): > 100 µM | GI50 (EKVX): 12.7 µM | TGI (EKVX): > 100 µM | CC50 (EKVX; [1]): > 100 µM | GI50 (M14): 3.36 µM | TGI (M14): 89.6 µM | CC50 (M14; [1]): > 100 µM | GI50 (CCRF-CEM): 3.41 µM | TGI (CCRF-CEM): > 100 µM | CC50 (CCRF-CEM; [1]): > 100 µM | GI50 (HCC 2998): 6.08 µM | TGI (HCC 2998): > 100 µM | CC50 (HCC 2998; [1]): > 100 µM
